Columns and labels:
[1] = molecular target: T1, IL-17A(FLAG-Tagged): IL-17RA(His-Tagged) binding (Homo sapiens, UniProt Q16552, K93Q); assay: IL-17A(FLAG-tagged):IL-17RA(His-tagged) binding disruption Eu-HTRF assay, Protocol 2; settings: FLAG-IL-17A 1 nM; average if tested more than once
Outline: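 FLAG-tagged IL-17A (1 nM final) was preincubated with compound (2-fold serial dilutions, 22 points) for 1 h at rt in PBS + 0.01% Triton X-100. 10×His-IL-17RA, Eu-anti-FLAG and D2-anti-His in buffer containing KF were then added for 2 h at rt. IC50 came from the 665/615 nm HTRF ratio fitted to a one-site competition model.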

[2] = test system: IL-17A-induced G-CSF production in human normal keratinocyte (NHK); assay: NHK assay: IL-17A-induced G-CSF production in normal human keratinocytes; format: cell-based; settings: Homo sapiens, Keratinocyte, 24 h, IL-17A 5 ng/mL, G-CSF by HTRF, average if tested more than once
Outline: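 IC50 derives from G-CSF in supernatants, quantified by HTRF from a standard curve, with CellTiter-Glo viability compared to DMSO control. Before a 24 h, 37°C culture of normal human keratinocytes at 3000–4000 cells/well, compound dilutions were preincubated 1 h at rt with human IL-17A (5 ng/mL final), with 0.2% DMSO and 5% FBS.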

[3] = molecular target: T1, IL-17A(FLAG-Tagged): IL-17RA(His-Tagged) binding; assay: IL-17A(FLAG-tagged):IL-17RA(His-tagged) binding disruption Eu-HTRF assay, Protocol 1; settings: FLAG-IL-17A 2.5 nM; average if tested more than once
Excerpt: IL-17A(FLAG-Tagged): IL-17RA(His-Tagged) Binding Disruption Eu-HTRF Assay
An antibody directed against the FLAG tag of IL-17A (SEQ ID NO: 1) is labeled with the HTRF donor chromophore (Europium-cryptate). IL-17A is present as a dimer that is “locked into” this quaternary structure due to the formation of loop-spanning […] disulfide bridges. The construct of IL-17RA used in the assay excludes the […] portion of the receptor and is fused to a C-terminal 10×His tag (SEQ ID NO:2). An antibody directed against the His tag of the IL-17RA chimera is labeled with the HTRF acceptor chromophore (“D2”). The fluorescence-resonance energy transfer (FRET) depends on the vicinity of the donor chromophore to the acceptor, and interruption of the binding between the IL-17A and IL-17RA causes the reduction/loss of FRET. Therefore, this assay allows to evaluate the compound effect on the binding IL-17A and IL-17RA by monitoring the fluorescence intensity of donor vs acceptor. The assay was run using either Protocol 1 or Protocol 2 as described below.
Protocol 1. 40 nl of 2-fold serial diluted compound solution for total 22 dilution points is added into each well of a 1536-well, white, low-volume, non-binding plate (Greiner #782904), then 2 μl of FLAG tagged IL-17A at 2×final concentration (2.5 nM) in solution of PBS+0.01% Triton-X100 is added to each well. The assay plate is briefly centrifuged then incubated for 1 h at rt. A mixed solution is prepared containing 2×5 nM 10HIS×IL-17RA, 2×2.5 nM Eu-anti-FLAG (CISBIO), 2×5 nM D2-anti-HIS (CISBIO) in PBS+0.01% Triton-X100+200 mM Potassium Fluoride (Sigma 60238) and 2 μl of mix is added to each well of the assay plate. The plate is briefly centrifuged then incubated for 2 h at rt. The HTRF intensities at the wavelength of donor (620 nm) and acceptor (665 nm) are measured using BMG Pherastar. The ratio between intensities at two wavelengths is calculated and plotted against the compound concentration and the data is fitted to a one-site competition model to yield IC50 of the compound.

[4] = moderate-to-severe HS, seven of nine patients, open-label pilot-trial; cited from earlier work

T1 sequence (Q16552 with tags, fused parts or gaps K93Q): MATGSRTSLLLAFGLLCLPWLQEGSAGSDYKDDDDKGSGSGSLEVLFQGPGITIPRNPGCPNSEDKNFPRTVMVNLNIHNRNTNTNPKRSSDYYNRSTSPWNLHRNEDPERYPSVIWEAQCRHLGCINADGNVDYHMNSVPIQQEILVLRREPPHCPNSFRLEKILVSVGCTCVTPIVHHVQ

Compound | IC50 [1] | IC50 [3] | IC50 [2] | patients achieved HiSCR [4]
COC[C@H](c1cnn2cc([C@@H](NC(=O)c3nonc3C3CC3)C3CCC(F)(F)CC3)nc2c1)N1CC(F)(F)CNC1=O [Example 11, 4-Cyclopropyl-N—((S)-(7-((S)-1-(5,5-difluoro-2-oxotetrahydropyrimidin-1(2H)-yl)-2-methoxyethyl)imidazo[1,2-b]pyridazin-2-yl)(4,4-difluorocyclohexyl)methyl)-1,2,5-oxadiazole-3-carboxamide] | < 50 nM | < 50 nM | < 50 nM | 
CC(C)n1nccc1C(=O)N[C@H](c1cn2ncc(CN3CCCCNC3=O)cc2n1)C1CCC(F)(F)CC1 [Example 31, (S)—N-((4,4-Difluorocyclohexyl)(7-((2-oxo-1,3-diazepan-1-yl)methyl)imidazo[1,2-b]pyridazin-2-yl)methyl)-1-isopropyl-1H-pyrazole-5-carboxamide] |  | > 100 nM | > 100 nM | 
N#CC1([C@H](c2cnn3cc([C@@H](NC(=O)c4nonc4C4CC4)C4CCC(F)(F)CC4)nc3c2)N2CC(F)(F)CNC2=O)CCC1 [Example 85, N—((S)-(7-((S)-(1-Cyanocyclobutyl)(5,5-difluoro-2-oxotetrahydropyrimidin-1(2H)-yl)methyl)imidazo[1,2-b]pyridazin-2-yl)(4,4-difluorocyclohexyl)methyl)-4-cyclopropyl-1,2,5-oxadiazole-3-carboxamide] |  | < 50 nM | > 100 nM | 
O=C(N[C@H](c1cn2ncc(CN3CC(F)(F)C(F)(F)CNC3=O)cc2n1)C1CCC(F)(F)CC1)c1nonc1C1CC1 [Example 86, (S)-4-Cyclopropyl-N-((4,4-difluorocyclohexyl)(7-((5,5,6,6-tetrafluoro-2-oxo-1,3-diazepan-1-yl)methyl)imidazo[1,2-b]pyridazin-2-yl)methyl)-1,2,5-oxadiazole-3-carboxamide] | < 50 nM | < 50 nM | < 50 nM | 
secukinumab |  |  |  | 78%

Second part, led by results:

IC50 [1] | IC50 [3] | Compound | IC50 [2] | patients achieved HiSCR [4]
< 50 nM | < 50 nM | Cc1nonc1C(=O)N[C@H](c1cn2ncc([C@@H](COC3CC3)N3CC(F)(F)CNC3=O)cc2n1)C1CCC(F)(F)CC1 [Example 16, N—((S)-(7-((S)-2-Cyclopropoxy-1-(5,5-difluoro-2-oxotetrahydropyrimidin-1(2H)-yl)ethyl)imidazo[1,2-b]pyridazin-2-yl)(4,4-difluorocyclohexyl)methyl)-4-methyl-1,2,5-oxadiazole-3-carboxamide] | < 50 nM | 
 | 50 to 100 nM | O=C(N[C@H](c1cn2ncc(CN3CCCCNC3=O)cc2n1)C1CCC(F)(F)CC1)c1nonc1C1CC1 [Example 30, (S)-4-Cyclopropyl-N-((4,4-difluorocyclohexyl)(7-((2-oxo-1,3-diazepan-1-yl)methyl)imidazo[1,2-b]pyridazin-2-yl)methyl)-1,2,5-oxadiazole-3-carboxamide] | > 100 nM | 
 | > 100 nM | Cc1nonc1C(=O)N[C@H](c1cn2ncc(CN3CC(C)(C)CNC3=O)cc2n1)C1CCC(F)(F)CC1 [Example 32, (S)—N-((4,4-Difluorocyclohexyl)(7-((5,5-dimethyl-2-oxotetrahydropyrimidin-1(2H)-yl)methyl)imidazo[1,2-b]pyridazin-2-yl)methyl)-4-methyl-1,2,5-oxadiazole-3-carboxamide] | > 100 nM | 
 | 50 to 100 nM | CC1(C)CNC(=O)N(Cc2cnn3cc([C@@H](NC(=O)c4nonc4C4CC4)C4CCC(F)(F)CC4)nc3c2)C1 [Example 33, (S)-4-Cyclopropyl-N-((4,4-difluorocyclohexyl)(7-((5,5-dimethyl-2-oxotetrahydropyrimidin-1(2H)-yl)methyl)imidazo[1,2-b]pyridazin-2-yl)methyl)-1,2,5-oxadiazole-3-carboxamide] | > 100 nM | 
 | > 100 nM | CC(C)n1nccc1C(=O)N[C@H](c1cn2ncc(CN3CC(C)(C)CNC3=O)cc2n1)C1CCC(F)(F)CC1 [Example 34, (S)—N-((4,4-Difluorocyclohexyl)(7-((5,5-dimethyl-2-oxotetrahydropyrimidin-1(2H)-yl)methyl)imidazo[1,2-b]pyridazin-2-yl)methyl)-1-isopropyl-1H-pyrazole-5-carboxamide] | > 100 nM | 

— US12173007B2, “Imidazopyridazine IL-17 inhibitor compounds” (Janssen Pharmaceutica NV, priority 2021, dated 2024)
